# Assay results as given in patent EP4063344A1, “SALT OF 2-ADAMANTYL ACETIC ACID HAVING ANTI-VIRAL ACTIVITY, FORMULATIONS THEREOF AND USES THEREOF” (Sciamannini, Umbro, priority 2021, dated 2022).
# Test system: viral and/or fungal and/or bacterial
# Settings: no test conditions given
substance,measurement,value
"1-hexadecanaminium, N,N,N,trimethyl-tricyclo[3.3.1.13,7]decane-2-acetate(1:1) [salt of the invention]",viral and/or fungal and/or bacterial inhibition action,greater than 4 log
